Active and inactive are the calls of the source. How the calls were made is not given here.
Test system: CCRIS mutagenicity, Ames/micronucleus/aberration tests
Test: CCRIS mutagenicity studies

Measured: mutagenic call

CCCCCCCCCCCCCCCC(=O)OC[C@H](O)[C@H]1OC(=O)C(O)=C1O
inactive: Test System: AMES SALMONELLA TYPHIMURIUM, Strain/Indicator: TA97, Metabolic Activation: NONE, Method: PREINCUBATION inactive; negative | Test System: AMES SALMONELLA TYPHIMURIUM, Strain/Indicator: TA97, Metabolic Activation: RAT, LIVER, S-9, AROCLOR 1254, Method: PREINCUBATION inactive; negative | Test System: AMES SALMONELLA TYPHIMURIUM, Strain/Indicator: TA98, Metabolic Activation: NONE, Method: STANDARD PLATE inactive; negative | Test System: AMES SALMONELLA TYPHIMURIUM, Strain/Indicator: TA98, Metabolic Activation: RAT, LIVER, S-9, AROCLOR 1254, Method: STANDARD PLATE inactive; negative | Test System: AMES SALMONELLA TYPHIMURIUM, Strain/Indicator: TA100, Metabolic Activation: NONE, Method: STANDARD PLATE inactive; negative | Test System: AMES SALMONELLA TYPHIMURIUM, Strain/Indicator: TA100, Metabolic Activation: RAT, LIVER, S-9, AROCLOR 1254, Method: STANDARD PLATE inactive; negative | Test System: AMES SALMONELLA TYPHIMURIUM, Strain/Indicator: TA102, Metabolic Activation: NONE, Method: PREINCUBATION inactive; negative | Test System: AMES SALMONELLA TYPHIMURIUM, Strain/Indicator: TA102, Metabolic Activation: RAT, LIVER, S-9, AROCLOR 1254, Method: PREINCUBATION inactive; negative | Test System: AMES SALMONELLA TYPHIMURIUM, Strain/Indicator: TA1535, Metabolic Activation: NONE, Method: STANDARD PLATE inactive; negative | Test System: AMES SALMONELLA TYPHIMURIUM, Strain/Indicator: TA1535, Metabolic Activation: RAT, LIVER, S-9, AROCLOR 1254, Method: STANDARD PLATE inactive; negative | Test System: AMES SALMONELLA TYPHIMURIUM, Strain/Indicator: TA1537, Metabolic Activation: NONE, Method: STANDARD PLATE inactive; negative | Test System: AMES SALMONELLA TYPHIMURIUM, Strain/Indicator: TA1537, Metabolic Activation: RAT, LIVER, S-9, AROCLOR 1254, Method: STANDARD PLATE inactive; negative | Test System: AMES SALMONELLA TYPHIMURIUM, Strain/Indicator: TA1538, Metabolic Activation: NONE, Method: STANDARD PLATE inactive; negative | Test System: AMES SALMONELLA TYPHIMURIUM, Strain/Indicator: TA1538, Metabolic Activation: RAT, LIVER, S-9, AROCLOR 1254, Method: STANDARD PLATE inactive; negative | Test System: E. COLI, Strain/Indicator: WP2, Metabolic Activation: NONE, Method: STANDARD PLATE inactive; negative | Test System: E. COLI, Strain/Indicator: WP2, Metabolic Activation: RAT, LIVER, S-9, AROCLOR 1254, Method: STANDARD PLATE inactive; negative

O[C@H]1C=Cc2ccc3c(sc4ccccc43)c2[C@@H]1O
inactive: Test System: AMES SALMONELLA TYPHIMURIUM, Strain/Indicator: TA100, Metabolic Activation: RAT, LIVER, S-9, AROCLOR 1254, Method: PREINCUBATION inactive; negative
